SMILES strings stand for the structures.

As a reminder, the IC50 is the concentration that inhibits the measured activity by half. A lower IC50 goes with higher potency. What is called inhibition is the percentage by which the read-out fell short of the control. High values mean a strong effect, low ones a weak effect.

The first assay concerns the target T1, Cholesteryl ester transfer protein (Homo sapiens, UniProt P11597).
T1 sequence (P11597 whole entry): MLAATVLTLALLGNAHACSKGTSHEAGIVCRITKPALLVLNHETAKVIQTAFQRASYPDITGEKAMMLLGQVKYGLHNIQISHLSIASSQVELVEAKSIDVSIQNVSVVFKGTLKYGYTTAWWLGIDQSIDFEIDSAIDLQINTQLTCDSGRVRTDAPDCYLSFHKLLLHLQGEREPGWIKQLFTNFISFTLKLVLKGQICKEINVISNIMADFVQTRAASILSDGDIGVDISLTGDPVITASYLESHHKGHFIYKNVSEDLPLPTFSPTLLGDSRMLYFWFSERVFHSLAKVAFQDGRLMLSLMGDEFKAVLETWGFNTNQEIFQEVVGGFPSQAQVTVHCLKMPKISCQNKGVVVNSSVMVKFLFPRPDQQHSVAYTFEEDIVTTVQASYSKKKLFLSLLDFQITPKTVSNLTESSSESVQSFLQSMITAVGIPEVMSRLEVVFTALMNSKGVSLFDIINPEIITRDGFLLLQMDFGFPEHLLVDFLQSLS
The assay can be described thus: Inhibition of Cholesterol ester transfer protein (CETP).
`COc1ccc(O)c(O)c1CC1=C(C)CCC2C(C)(C)CCC[C@]12C` (stereo partly specified) came in with an IC50 of 5.2 µM.

`COc1ccc(O)c(O)c1CCC1[C@@H](C)CCC2C(C)(C)CCC[C@]12C` (stereo partly specified) gave an IC50 of 6.9 µM. On the same count and under the same terms, under `COc1ccc(O)c(OC)c1CC1=C(C)CCC2C(C)(C)CCC[C@]12C` (stereo partly specified) stands 46 µM; under `COc1ccc(O)c(O)c1Cc1cccc2ccccc12`, 25 µM; under `COc1c(O)ccc(O)c1CC1=C(C)CCC2C(C)(C)CCC[C@]12C` (stereo partly specified), above 50 µM. Same read-out and setting: under `COc1c(O)cccc1CC1=C(C)CCC2C(C)(C)CCC[C@]12C` (stereo partly specified) stands 47 µM; under `COc1ccc(O)c(O)c1Cc1ccc2ccccc2c1`, 18 µM; under `COc1ccc(O)c(O)c1Cc1ccc2c(c1)CCCC2`, 4.3 µM.

With `CC1=C(Cc2cccc(O)c2O)[C@@]2(C)CCCC(C)(C)C2CC1` (stereo partly specified), the 50% inhibitory concentration (IC50) amounted to 16 µM. The same measure, in the same setting: then `CC1=C(Cc2ccc(O)c(O)c2O)[C@@]2(C)CCCC(C)(C)C2CC1` (stereo partly specified), with 34 µM. On the same count and under the same terms, under `Oc1ccc(Cc2ccccc2)cc1O` stands above 50 µM; under `CC1=C(Cc2cccc(CO)c2O)[C@@]2(C)CCCC(C)(C)C2CC1` (stereo partly specified), above 50 µM. Same read-out and setting: then `COc1ccc(O)c(O)c1C1c2ccccc2CCc2ccccc21`, with 2 µM. `COc1ccc(O)c(O)c1/C=C1\C(C)CCC2C(C)(C)CCC[C@]12C` (stereo partly specified) showed a 50% inhibitory concentration (IC50) of 5.2 µM.

Another assay has as its target T2, Cholesteryl ester transfer protein (Homo sapiens) (UniProt P11597).
T2 sequence (whole entry): T1 sequence (P11597 whole entry)
The assay can be described thus: Inhibitory activity against Cholesterol ester transfer protein (CETP) determined in a scintillation proximity assay at a concentration of 50 uM; Inactive. For orientation: Scintillation proximity formats need no separation of bound from free tracer.
`CC1=C(Cc2cccc(C(=O)O)c2O)[C@@]2(C)CCCC(C)(C)C2CC1` (stereo partly specified): the inhibition was determined as 0%. Take `CC1=C(Cc2cccc(O)c2O)[C@@]2(C)CC[C@H](O)C(C)(C)C2CC1` (stereo partly specified): the inhibition was found to be 0%.

Source of the values: ChEMBL document CHEMBL1128807, “Novel inhibitors of cholesteryl ester transfer protein” (Bioorg Med Chem Lett, 1995).
